According to patent US7491518B2, “Method of elevating yield of oligosaccharides containing α-galactosyl and anti-candida compositions” (Amano Enzyme Inc., priority 2000, dated 2009):

Tests used:
[1] = test system: Candida albicans IFM40009; assay: Persistence of orally administered Candida microorganism in the intestinal tract of mice (viable cell count in cecum and colon); type: in vivo; details: mouse, 100 mg/animal oral once a day for two weeks, 1 week after forcible administration of Candida suspension
Excerpt: A Candida microorganism was given forcibly via an oral administration to a mouse on diet with the oligosacchride containing α-galactosyl obtained in EXAMPLE 3 to test the persistence of the Candida microorganism in an intestinal tract, whereby assessing the anti-candida effect of the oligosacchride containing α-galactosyl.
(Methods) A test mouse was a 4-week old male mouse of Crj:CD-1 (ICR) line (NIPPON CHARLES RIVER). A preliminary housing was provided to the animal for 1 week while being allowed to access a basal diet and a distilled water ad libitum. The basal diet was a solid chow for mice (MF: ORIENTAL YEAST). After the preliminary housing, the basal diet and the distilled water were given ad libitum continuously, and a control group fed with a sucrose, a positive control group fed with a raffinose, and a treatment group fed with an oligosacchride containing α-galactosyl were provided (5 animals per group) to conduct a forcible oral administration at 100 mg/animal via an oral gavage for two weeks on a once-a-day basis. […]
The viable cell of the Candida microorganism was counted by applying a Candida microorganism suspension diluted appropriately with a physiological saline onto a Candida GS (EIKEN KAGAKU) plate medium and incubating at 37° C. for 42 to 48 hours followed by counting the colonies formed. […]

[2] = cited from earlier work
Candida microorganism = details: in vitro and in vivo; cited from earlier work
[3] = target: toxin produced by Clostridium difficile (Clostridioides difficile, UniProt P16154); details: cited from earlier work
pathogenic E.coli 0157 = details: cited from earlier work

OC[C@H]1O[C@H](OC[C@H]2O[C@H](O[C@]3(CO)O[C@H](CO)[C@@H](O)[C@@H]3O)[C@H](O)[C@@H](O)[C@@H]2O)[C@H](O)[C@@H](O)[C@H]1O [raffinose]
viable cell count of Candida microorganism in the cecum [1]: not changed | viable cell count of Candida microorganism in the colon ([1]; compared with sucrose control group): lower | effect on atopic dermatitis ([2]; in vivo): exerted an effect | side effects observed with an antifungal agent (transient exacerbation of rash, digestive organ signs) ([2]; oral administration): does not cause side effects | effects on a Candida microorganism (Candida microorganism): inhibitory and eradicative effects

OC[C@H]1O[C@H](O[C@@H]2[C@@H](O)[C@@H](O)O[C@H](CO)[C@@H]2O)[C@H](O)[C@@H](O)[C@H]1O [α-1,3-galactobiose]
effect on toxin produced by Clostridium difficile [3]: neutralizing effect

OC[C@H]1O[C@H](O[C@@H]2[C@H](O)[C@@H](O)C(O)O[C@@H]2CO)[C@H](O)[C@@H](O)[C@H]1O (stereo partly drawn) [α-1,4 galactobiose]
effect on pathogenic E.coli 0157 (pathogenic E.coli 0157): inhibitory and therapeutic effect
